From patent US20060258713A1, “Treatment of pain” (Wyeth, priority 2005, published 2006)

Tested on: Male Sprague-Dawley rats
Assay: L5 spinal nerve ligation (SNL) tactile allodynia model, von Frey thresholds
Assay type: in vivo, rat
Conditions: 0.3, 1 or 3 mg/kg i.p., thresholds up to 60, 180 and 300 minutes after dosing, reversal of tactile allodynia, FIG. 1
Description: Compound 1, (7-(2,6-dichlorophenyl)-5-fluoro-2,3-dihydrobenzofuran-2-yl)methanamine, was obtained from Wyeth compound repository and gabapentin was purchased from Toronto Research Chemicals (Ontario, Canada) and […]. Compound 1 was dissolved in sterile saline and gabapentin was suspended in 2% Tween 80 in 0.5% methylcellulose and sterile water. All compounds were administered intraperitoneally (i.p.).
Male Sprague-Dawley rats (125-150 g, Harlan; Indianapolis, Ind.) were individually housed on bedding. For all studies animals were maintained in climate-controlled rooms on a 12-hour light/dark cycle (lights on at 0630) with food and water available ad libitum. […]
Assessment of Tactile Allodynia (Tactile Sensitivity): Tactile thresholds were assessed using a series of calibrated von Frey monofilaments (Stoelting; Wood Dale, Ill.). The threshold that produced a 50% likelihood of a withdrawal was determined using the up-down method, as previously described (Chaplan et al., 1994).
Animals were placed in elevated wire cages and allowed 45-60 minutes to acclimate to the testing room. […] The lowest force that evoked a brisk withdrawal response to the stimuli determined the pain threshold. Tactile thresholds were determined on the day prior to surgery and rats with baseline thresholds <10 g force were excluded from studies. […]

## NCC1Cc2cc(F)cc(-c3c(Cl)cccc3Cl)c2O1 (stereo not shown) [Compound 1, (7-(2,6-dichlorophenyl)-5-fluoro-2,3-dihydrobenzofuran-2-yl)methanamine]
  effectiveness in the tactile allodynia model: effectiveness
